Activity calls are given as the source filed them. No cut-off for these calls is given here.
How the values were obtained:
[1] = target: T1, Arginase-1 (Homo sapiens, UniProt P05089); experiment: Irreversible inhibition of human arginase 1 using thioarginine as substrate measured up to 360 mins by UV micro plate method
T1 sequence (P05089 whole entry): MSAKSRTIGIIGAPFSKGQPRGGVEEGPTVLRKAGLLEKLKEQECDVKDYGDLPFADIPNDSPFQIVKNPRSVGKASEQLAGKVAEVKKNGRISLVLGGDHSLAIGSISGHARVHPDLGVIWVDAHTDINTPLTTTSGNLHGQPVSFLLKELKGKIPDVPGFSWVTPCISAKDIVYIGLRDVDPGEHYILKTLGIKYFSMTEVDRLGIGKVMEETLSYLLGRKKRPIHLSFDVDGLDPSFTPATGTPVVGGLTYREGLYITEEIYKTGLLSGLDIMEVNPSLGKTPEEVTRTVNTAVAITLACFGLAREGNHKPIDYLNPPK

[2] = target: T2, Arginase-1 (Homo sapiens) (UniProt P05089); experiment: Irreversible inhibition of human arginase 1 assessed as inactivation rate constant using thioarginine as substrate measured up to 360 mins by UV micro plate method
T2 sequence (whole entry): T1 sequence (P05089 whole entry)

[3] = target: T3, Arginase-2, mitochondrial (Homo sapiens, UniProt P78540); experiment: Irreversible inhibition of human arginase 2 using thioarginine as substrate measured up to 360 mins by UV micro plate method
T3 sequence (P78540 whole entry): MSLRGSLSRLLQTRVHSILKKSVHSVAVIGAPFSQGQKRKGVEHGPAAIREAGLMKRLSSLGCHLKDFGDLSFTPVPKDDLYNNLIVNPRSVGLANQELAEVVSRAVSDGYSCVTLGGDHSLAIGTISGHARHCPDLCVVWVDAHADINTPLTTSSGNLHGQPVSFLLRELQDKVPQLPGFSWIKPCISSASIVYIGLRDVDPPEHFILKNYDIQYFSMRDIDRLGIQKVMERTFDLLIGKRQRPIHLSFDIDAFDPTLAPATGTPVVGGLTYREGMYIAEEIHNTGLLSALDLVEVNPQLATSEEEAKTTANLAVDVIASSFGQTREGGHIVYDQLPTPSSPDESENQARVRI

[4] = target: T4, Arginase-2, mitochondrial (Homo sapiens) (UniProt P78540); experiment: Irreversible inhibition of human arginase 2 assessed as inactivation rate constant using thioarginine as substrate measured up to 360 mins by UV micro plate method
T4 sequence (whole entry): T3 sequence (P78540 whole entry)

[5] = target: T2, Arginase-1 (Homo sapiens); experiment: Binding affinity to human arginase 1 at Thr135 residues preincubated with compound at 500 uM followed by chymotrypsin addition measured after 16 hrs by tandem mass spectrometric method
[6] = Reversible inhibition of human arginase using thioarginine as substrate measured up to 360 mins by UV micro plate method

In the case of `N=C(N)Nc1ccc(C(F)C(=O)O)cc1` (stereo not given), the Ki [1] is reported as 275 to 307 µM, the Kinact [2] is reported as 0.029 to 0.031 min⁻¹ and the Ki [3] is reported as 322 µM. The Kinact [4] was 0.048 min⁻¹ and the Activity [5] was “Active”.
Compound `N[C@@H](CSCCB(O)O)C(=O)O` has a Ki [6] of 20 µM.
`CC(=O)OC(C(=O)O)c1ccc(NC(=N)N)cc1` (stereo not given) showed a Ki [1] of 382 µM, a Kinact [2] of 0.032 min⁻¹ and a Ki [3] of 437 µM. For the same compound, the Kinact [4] was 0.033 min⁻¹.

Reference: ChEMBL document CHEMBL4229409, “Rational design of novel irreversible inhibitors for human arginase” (Bioorg Med Chem, 2018)
